US12616751B2, “Photosensitizing antibody-fluorophore conjugates” (The USA, as represented by the Secretary, Department of …, priority 2010, dated 2026)

Test system: A431 cells
Test: Fluorescence microscopy of Pan-IR700 in A431 cells
Format: cell-based
Settings: after 24 h incubation
Procedure: EGFR-expressing A431 cells were used as the target HER1+ cells. […] Cells were grown in RPMI 1640 supplemented with 10% fetal bovine serum and 1% penicillin/streptomycin in tissue culture flasks in a humidified incubator at 37° C. in an atmosphere of 95% air and 5% carbon dioxide. A431 or Balb/3T3/DsRed cells were seeded on cover glass-bottomed dishes and incubated for 24 hours. Pan-IR700 was added to the culture medium at 10 μg/mL and incubated either for 1 hour on ice or 6 hours at 37° C., then cells were washed with PBS. Culture medium was replaced with phenol red-free medium after washing with phosphate buffered saline (PBS).
Fluorescence microscopy was performed as described in Example 2 to detect the antigen-specific localization of IR700.
Reagents. […] The protein concentrations were determined with Coomassie Plus protein assay kit (Pierce Biotechnology) by measuring light absorption at 595 nm (8453 Value System; Agilent Technologies). […] Quenching efficiency (QE) for a particular conjugation is defined as the fluorescence intensity with SDS divided by fluorescence intensity without SDS. […] Fluorescence lifetime measurements. […] Lifetime values and lifetime mapping were calculated to fit fluorescence temporal point-spread functions (TPSFs) as single-exponential models with the Fit TPSF tool. […] Power densities were measured with an optical power meter (PM 100, Thorlabs). […]

Pan-IR700: Panitumumab (anti-human EGFR IgG2 MAb) conjugated to IR700; about 3 to 4 IR700 per antibody
cell damage following exposure to NIR light: immediate damage was induced in the cell membranes and lysosomes
